Where “and” joins values, the source holds several entries; their conditions need not be identical. Equal values may be shown once.
Key:
IL-8 mRNA in HIOs = assay: IL-8 mRNA in iPSC-derived human intestinal organoids exposed to cytokine cocktail; format: cell-based; parameters: key to IL8 mRNA: relative IL-8 mRNA level, normalized to GAPDH; details: for basal IL-8 expression: 10 and 25 μM; for IL-8 mRNA expression in presence of cytokines: 12 h of exposure; for IL8 mRNA: HIO, triplicate
Protocol: Caco‐2 cell (ATCC, Manassas, VA) passages 25–35 were maintained and expanded in culture flasks in Dulbecco's modified Eagle's medium (DMEM) with 10% FBS and 1× antibiotic–antimycotic. The cells were kept in a humidified 37°C incubator with 5% CO2. Media were changed every 2–3 days, and cells were passaged 1–2 times a week. For all experiments, Caco‐2 cells (5 × 10^4 cells/ml) were seeded into 12‐well Transwell inserts or coverslips and cultured for 3 weeks. HIOs were generated from iPSCs as described previously (Spence et al, 2011), with some modifications. The iPSC cell line IISH1i‐BM1 (WiCell, Madison, WI) was cultured on Matrigel plates to 80% confluence in mTeSR™ 1 medium (Stem Cell Technologies, Seattle, WA) and differentiated to endoderm using Definitive Endoderm Kit (Stem Cell Technologies., Seattle, WA) for 4 days with daily media changes. Endoderm was then differentiated to hindgut for 5 days with the addition of FGF‐4 (500 ng/ml; Peprotech, Rocky Hill, NJ) and Chir99021 (3 μM; Cayman, Ann Arbor, MI) in RPMI media supplemented with 2% FBS. Floating hindgut spheroids were collected on days 3–5 of hindgut differentiation and suspended in Matrigel beads for HIO differentiation. HIOs were maintained in WENRAS media (Fujii et al, 2015), which maintains proliferation in the culture. Stock HIOs were passaged weekly by removing Matrigel with Cell Recovery Solution (Corning, NY) and mechanically breaking up organoids with pipetting. HIOs were seeded into new Matrigel beads at a 1:3 split, using WENRAS with added Rock Inhibitor Y‐27632 (10 μM) and Chir99021 (3 μM; Cayman., Ann Arbor, MI) for the first 2 days of culture.
HIOs and Caco‐2 were exposed to a pro‐inflammatory cytokine cocktail (10 ng/ml IFN‐γ, 10 ng/ml TNF‐α, 50 ng/ml IL‐1β) for 2–24 h in combination with DMSO or FKK5 and FKK6 compounds (10 and 25 μm). Relative mRNA levels of IL‐8 and IL‐6 were determined using quantitative real‐time PCR, with normalization to GAPDH. RNA was isolated using an RNeasy Mini Kit (Qiagen) as per the manufacturer's instructions. On column DNase (Qiagen) was used to remove any contaminating DNA. Next, cDNA was formed using iScript cDNA Synthesis Kit (Bio‐Rad) and 100 ng RNA. qRT–PCR was performed with SsoAdvanced Universal SYBR Green Kit (Bio‐Rad). The following primers were used: IL‐8 Forward: […]; IL‐8 Reverse: […]; IL‐6 Forward: […]; IL‐6 Reverse: […]; GAPDH Forward: […]; GAPDH Reverse: […]. For immunofluorescent staining of NF‐ĸB translocation to the cell nucleus, HIOs and Caco‐2 cell monolayers were fixed in 4% formaldehyde (in 1 × PBS) overnight at 4°C. The formaldehyde was removed by washing with 1 × PBS, and an antigen retrieval step was performed by incubating in 10 mM sodium citrate buffer in a vegetable steamer for 20 min. The samples were then blocked with normal donkey serum (10% in PBS with 0.3% Triton X‐100) for 1 h. Samples were incubated overnight with primary antibodies: rabbit anti‐NF‐κB p65 (D14E12 # 8242, 1:400 dilution, Cell Signaling Technology, Danvers MA), then immersed in Alexa Fluor® 555 donkey anti‐rabbit secondary antibody (A‐31572, Life Technologies) at a 1:500 dilution. Nuclei were stained with Hoechst 33342 (Life Technologies). The samples were then imaged using a Zeiss LSM880 Confocal/Multiphoton Upright Microscope, with 3‐D image rendering using Volocity. For controls, normal rabbit IgG (#2729S, Life Technologies) was used.

PXR = biological target: T1, PXR (Homo sapiens, UniProt O75469); assay: Ligand efficiency metric (LEM) analysis; parameters: expressed in transfected cells; host or cells: LS180; details: NSEI-nBEI plane, from PXR reporter Emax
T1 sequence (O75469 1-434): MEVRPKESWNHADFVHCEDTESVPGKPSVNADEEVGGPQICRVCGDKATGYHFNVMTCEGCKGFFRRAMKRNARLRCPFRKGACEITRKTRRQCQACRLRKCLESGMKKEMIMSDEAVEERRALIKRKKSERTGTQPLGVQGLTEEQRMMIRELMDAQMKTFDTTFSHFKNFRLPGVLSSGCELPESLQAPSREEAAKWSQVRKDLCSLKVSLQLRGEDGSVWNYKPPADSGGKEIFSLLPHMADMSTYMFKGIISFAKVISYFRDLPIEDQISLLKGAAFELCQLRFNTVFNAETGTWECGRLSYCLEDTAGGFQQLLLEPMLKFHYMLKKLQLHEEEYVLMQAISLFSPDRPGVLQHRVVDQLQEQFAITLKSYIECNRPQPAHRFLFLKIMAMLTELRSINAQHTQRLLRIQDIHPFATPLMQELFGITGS
From the text: Ligand efficiency metric (LEM) analysis for FKK ligand efficiency. The ligand efficiency metrics (LEMs) of compounds FKK1 to 10 and FKK999 as a reference compound, have been analyzed by using a web tool named AtlasCBS which represents LEMs as variables for a Cartesian mapping of chemico-biological space (CBS). In particular, Cartesian planes combine three critical variables in drug discovery (affinity, size, and polarity) into easily interpretable ‘efficiency planes’ useful to guide a drug discovery process. In the Cartesian plane, each target:ligand pair appears as a point whose coordinates are given by pairs of values derived from the affinity of the ligand toward the target (Ki or equivalent) in relation to its size (MW or number of non-hydrogen atoms NHA), and its polarity (expressed as Polar Surface Area, PSA, or number of polar atoms, NPOL = count of N + O). The first one represents a size-related LEM and the second a polarity-related LEM. Consistently, compounds that correspond to marketed drugs typically occupy the upper right quadrant of the plots (‘Nort h-East’ direction, NE), where both the efficiency -pe r-size and efficiency -per-polarity are optimized 1,2.
Our results are represented in the efficiency plane NS EI-nBEI where:
NSEI = –log Ki/NPOL (N, O) = pKi/NPOL (N, O)
As a measure of activity of the above compounds, the reciprocal of the percentage efficacy values (1/Efficacy [%]) obtained in the PXR-dependent luciferase activity test (Emax values from Fig. 1) were used in lieu of the affinity constants (Ki in the above equations). FKK4 would appear as the most efficient compound since it is placed in the NE panel (GL, unpublished observations). However, this congener might suffer from metabolic liability with its N-protecting group possibly generating toxic aldehydes by oxidative cleavage in vivo. Unambiguously, the two most efficient compounds besides FKK4 are FKK5 and FKK6 which were therefore considered suitable lead compounds, as al so

[1] = compound 10µm, no cytokines, 2 hr
[2] = cytokines + compound 10µm, 2 hr
[3] = cytokines + compound 25µm, 2 hr

SMILES	basal IL-8 expression (IL-8 mRNA in HIOs)	IL-8 mRNA expression in presence of cytokines (IL-8 mRNA in HIOs)	IL8 mRNA (IL-8 mRNA in HIOs; [1])	IL8 mRNA (IL-8 mRNA in HIOs; [2])	IL8 mRNA (IL-8 mRNA in HIOs; [3])	LEM analysis prediction (PXR)	IL8 mRNA (IL-8 mRNA in HIOs; compound 25µm, no cytokines, 2 hr)	IL8 mRNA (IL-8 mRNA in HIOs; cytokines + compound 10µm, 12 hr)	IL8 mRNA (IL-8 mRNA in HIOs; cytokines + compound 25µm, 12 hr)
C#CCC(O)(c1ccncc1)c1cc2ccccc2n1S(=O)(=O)c1ccccc1 (stereo not drawn) [FKK6]	no significant effect	significantly reduced	17.457 and 16.5395 and 13.4302	87.755 and 95.5702 and 80.4889	19.632 and 32.9894 and 27.3407	best candidates for further studies	–	–	–
O=C(c1ccncc1)c1cc2ccccc2n1S(=O)(=O)c1ccccc1 [FKK5, (1-(phenylsulfonyl)-1H-indol-2-yl)(pyridin-4-yl)methanone]	no significant effect	significantly reduced	18.0113 and 18.2375 and 29.1251	84.3969 and 82.9774 and 82.3934	91.455 and 107.347 and 106.247	best candidates for further studies	28.3595 and 38.1574 and 25.5014	1568.63 and 1202.46 and 1346.22	1661.53 and 1048.7 and 891.557

Source: article PMC7136958, “Targeting the pregnane X receptor using microbial metabolite mimicry” (EMBO Molecular Medicine, 2020)
